Measurements taken from PMC3288074, “Structural and Functional Analysis of Validoxylamine A 7′-phosphate Synthase ValL Involved in Validamycin A Biosynthesis” (PLoS ONE, 2012).

What was measured:
ValL = target: T1, ValL (Streptomyces hygroscopicus, UniProt H2K885); experiment: X-ray crystallography (co-crystal, […] Å); type: binding; conditions: product analog; active site between N- and C-terminal domains; 5 mM trehalose incubated, 30% trehalose in cryoprotectant; pH 8.5, MgCl2; SeMet protein
T1 construct: dimer; selenomethionine-labelled for the 3T7D data set
T1 sequence (H2K885 1-497): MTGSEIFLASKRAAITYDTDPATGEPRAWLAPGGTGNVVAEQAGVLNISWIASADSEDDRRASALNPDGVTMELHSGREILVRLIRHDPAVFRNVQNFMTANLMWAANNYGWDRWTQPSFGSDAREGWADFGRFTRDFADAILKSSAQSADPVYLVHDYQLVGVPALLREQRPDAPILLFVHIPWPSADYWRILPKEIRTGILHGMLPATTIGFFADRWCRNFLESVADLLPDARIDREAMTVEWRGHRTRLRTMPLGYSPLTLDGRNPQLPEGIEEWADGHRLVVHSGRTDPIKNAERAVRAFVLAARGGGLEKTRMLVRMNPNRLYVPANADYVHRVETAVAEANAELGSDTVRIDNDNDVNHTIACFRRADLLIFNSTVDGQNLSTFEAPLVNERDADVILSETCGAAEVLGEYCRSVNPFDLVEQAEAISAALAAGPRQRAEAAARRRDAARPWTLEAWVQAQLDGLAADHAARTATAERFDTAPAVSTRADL

[1] = target: the molecule itself; experiment: dynamic scattering; in solution; data not shown; conditions not given

Molecule: OC[C@H]1O[C@H](O[C@H]2O[C@H](CO)[C@@H](O)[C@H](O)[C@H]2O)[C@H](O)[C@@H](O)[C@@H]1O [trehalose]
- X-ray crystallography (co-crystal, 1.7 Å) (ValL): The co-crystallization of ValL/trehalose led to the determination of ValL/trehalose complex structure.

B1: Validoxylamine A 7'-phosphate synthase ValL (enzyme)
chain: TGSEIFLASKRAAITYDTDPATGEPRAWLAPGGTGNVVAEQAGVLNISWIASADSEDDRRASALNPDGVTMELHSGREILVRLIRHDPAVFRNVQNFMTANLMWAANNYGWDRWTQPSFGSDAREGWADFGRFTRDFADAILKSSAQSADPVYLVHDYQLVGVPALLREQRPDAPILLFVHIPWPSADYWRILPKEIRTGILHGMLPATTIGFFADRWCRNFLESVADLLPDARIDREAMTVEWRGHRTRLRTMPLGYSPLTLDGRNPQLPEGIEEWADGHRLVVHSGRTDPIKNAERAVRAFVLAARGGGLEKTRMLVRMNPNRLYVPANADYVHRVETAVAEANAELGSDTVRIDNDNDVNHTIACFRRADLLIFNSTVDGQNLSTFEAPLVNERDADVILSETCGAAEVLGEYCRSVNPFDLVEQAEAISAALAAGPRQRAEAAARRRDAARPWTLEAWVQAQLDGLAADHAARTATAERFDTAPAVSTRADL
notes: ValL, validoxylamine A 7'-phosphate synthase of the validamycin A gene cluster of Streptomyces hygroscopicus var. jinggangensis 5008; the encoded protein has 497 aa; gene valL cloned into pET28a between EcoRI and BamHI sites; Removal of the tag is not mentioned; The ValL/trehalose structure (3T7D) was obtained from selenomethionine-labelled ValL; the apo structure (3T5T) from native ValL; also …
- stoichiometry N [1]: 2
